Experiment [1] has as its system relapsed/refractory AML. Nature of the experiment: Independent dataset of 54 relapsed/refractory AML patients treated with tipifarnib. The class given is in vivo, human. To be noted: 54 relapsed/refractory AML patient samples. How it is done:
External validation of the TSP classifier was performed in an independent microarray dataset comprising of 54 relapsed/refractory AML patient samples. A diagnostic assay that predicts likely response to a cancer therapy should have a high sensitivity (and negative predictive value) since it is important to capture as many potential responders as possible. Therefore, to define an appropriate cutoff for testing the TSP classifier the need to obtain a high sensitivity of predicting responders while maintaining an acceptable level of specificity was considered. In the training set, the level of specificity that could be achieved ranged from approximately 30% to 100% when the sensitivity was set at 100% to 80%, respectively. To ensure the classifier would predict as many responders as possible a conservative cutoff that provided a specificity of approximately 60% in the training set was tested. When this cutoff was applied to the independent testing set of relapsed/refractory AML, the RASGRP1:APTX gene classifier stratified responders with 92% NPV and 27.6% PPV (compared to 18.5% prevalence) (FIG. 3C). The associated odds ratio for being a responder was 4.38.

In experiment [2] the test system is previously untreated, poor-risk AML. Nature of the experiment: Phase 2 study of tipifarnib in older adults with previously untreated, poor-risk AML (clinical response, overall survival). The class given is in vivo, human. An excerpt:
In an exemplary example, bone marrow samples are collected from an open label, multicenter, non-comparative phase 2 study investigating the efficacy and safety of farnesyltransferase inhibition with tipifarnib (R115777, ZARNESTRA®) in older adults with previously untreated, poor-risk AML.
Briefly, HI was defined as any bone marrow blast count less than 5% or a reduction in bone marrow blasts by at least half. Progressive disease (PD) was defined as either >50% increase in bone marrow or circulating blast % from baseline, or new appearance of circulating blasts (on at least 2 consecutive occasions). Stable disease (SD) was defined as any response not meeting CR, PR, HI, or PD criteria.
This study examined gene expression profiles of leukemic bone marrow samples from patients enrolled in a Phase 2 clinical trial of the farnesyltransferase inhibitor tipifarnib in elderly patients with previously untreated poor-risk acute myelogenous leukemia. Lancet et al. (2006). Bone marrow from 67 patients was collected before treatment with tipifarnib and leukemic myeloid cells were enriched by Ficoll-density centrifugation (Table 1). Good quality total RNA from 13 responders (9 CR, 4 HI), 8 stable disease and 13 progressive disease patients was amplified, labeled, and hybridized to the Affymetrix U133A GeneChip. A total of 30 samples were evaluated by qPCR for validation of specific genes and 32 samples were evaluated for N-RAS mutational status.

The mark [3] stands for this setting: Kaplan Meier analysis, RASGRP1 classifier, newly diagnosed AML (FIG. 1B).
[4] abbreviates: qPCR RASGRP1:APTX classifier, cut-point 0, 30 patients (FIG. 3C).

Take `Cn1cncc1[C@@](N)(c1ccc(Cl)cc1)c1ccc2c(c1)c(-c1cccc(Cl)c1)cc(=O)n2C` [tipifarnib]: in experiment [1], the prevalence of responders is 18.5%. Further, in experiment [2] (All treated patients (n=158)), the “CR, (%)” value was “(14) %”; the “CR, no.” value is listed as 22; the “HI, (%)” value is recorded as “(8) %”; the “HI, no.” value was 12. Further, in experiment [2] (All treated patients (n=158)), the “PD, (%)” value is listed as “(37) %”; the “PD, no.” value turned out to be 58; the “PR, (%)” value was “(2) %”; the “PR, no.” value was 3. Besides, in experiment [2] (setting [3]), the “median overall survival of the responders” value is reported as 386 days and the “median overall survival of those with progressive disease” value turned out to be 68 days. In experiment [2] (PGx profiled patients (n=67)), the “CR, (%)” value is reported as “(21) %”; the “CR, no.” value was 14; the “HI, (%)” value is reported as “(10) %”; the “HI, no.” value turned out to be 7. Besides, in experiment [2] (PGx profiled patients (n=67)), the “PD, (%)” value is recorded as “(44) %”; the “PD, no.” value was 30; the “PR, (%)” value is given as “(2) %”; the “PR, no.” value is 1. In experiment [2] (setting [4]), the “median overall survival of the predicted resistant patients” value was 82 days and the “median overall survival of those classified as responders” value stood at 295 days.

Values taken from patent publication US12274711B2, “Method of determining Acute Myeloid Leukemia response to treatment with farnesyltransferase inhibitors” (Janssen Pharmaceutica NV, priority 2010, dated 2025).
